Consider one compound from patent US20250255845A1, “USE OF INTERLEUKIN (IL)-17A INHIBITOR IN PREPARATION OF MEDICAMENT FOR TREATING INFLAMMATORY DISEASE” (Xiangnan University, priority 2024, published 2025).

The subject of the assay is IMQ-induced psoriasis mice. The assay is described as follows: H&E histological evaluation of dorsal skin of IMQ-induced psoriasis mice. It is filed as in vivo, Balb/c mice. To be noted: dose-dependent. The method, then:
Balb/c mice (female, 6-8 weeks, 20+2 g), with certificate number [SCXK (Xiang) 2021-0002], were purchased from Hunan SJA Laboratory Animal (Changsha, China). All mice were housed in an specific pathogen free (SPF)-grade animal room with a 12 h light/12 h dark cycle, and experiments were started after the mice were acclimated for one week. Next, 96 mice were randomly divided into 12 groups (8 mice/group), including Control group, Control solvent (white vaseline) group, IMQ group, IMQ solvent (white vaseline) group, preventive administration of positive medicament Clo group (IMQ+Clo 55 mg), therapeutic administration of positive medicament group (IMQ+Clo (A) 55 mg), preventive administration of Tan low-dose group (IMQ+Tan 40 μg/cm^2), medium-dose group (IMQ+Tan160 μg/cm^2), and high-dose group (IMQ+Tan 640 μg/cm^2), and therapeutic administration of Tan low-dose group (IMQ+Tan (A) 40 μg/cm^2), medium-dose group (IMQ+Tan (A) 160 μg/cm^2), and high-dose group (IMQ+Tan (A) 640 μg/cm^2). After the mice were anesthetized, a 2 cm×3 cm area on the back was selected for hair removal. Modeling began 48 h after hair removal, and all modeling mice were applied with 65 mg (55 mg on the back and 5 mg on each ear) of IMQ cream every morning for 10 d. […]

The structures appear in SMILES notation.

As for `COc1ccc(-c2cc(=O)c3c(OC)c(OC)c(OC)c(OC)c3o2)cc1` [Tan, tangeretin], the “H&E histology of dorsal skin (epidermal thickness, hyperkeratosis, inflammatory infiltration)” value (preventive Tan group vs IMQ group) was “reduced epidermal tissue thickness, reduced hyperkeratosis, and slight inflammatory cellular infiltration”; the “H&E histology of dorsal skin (epidermal thickness, hyperkeratosis, inflammatory infiltration)” value (therapeutic Tan group, especially high-dose, vs IMQ group) was “reduced epidermal tissue thickness, reduced hyperkeratosis, and slight inflammatory cellular infiltration”.
